The compounds below were run against human recombinant D-amino acid oxidase (Homo sapiens (Human), UniProt P14920) (assay: In vitro D-amino acid oxidase (DAAO) assay, 96-well plate). Conditions: human recombinant DAAO; D-serine 5 mM, FAD 1 μM, 20 min, room temperature, Tris buffer pH 8.5; read-out: Inhibition of DAAO IC50.
Assay type: biochemical
Protocol: (§1) A reliable 96-well plate D-amino acid oxidase (DAAO) assay was developed based on previously published reports (J. Biol. Chem. 277: 27782 (2002)). […] All reactions were carried out for 20 min at room temperature in a 100-μL volume in Tris buffer (50 mM, pH 8.5). Additionally, stock solutions and serial dilutions of potential DAO inhibitors were made in 10:90 DMSO:buffer with a final assay DMSO concentration of 1%.

Sequence of human recombinant D-amino acid oxidase (P14920 whole entry): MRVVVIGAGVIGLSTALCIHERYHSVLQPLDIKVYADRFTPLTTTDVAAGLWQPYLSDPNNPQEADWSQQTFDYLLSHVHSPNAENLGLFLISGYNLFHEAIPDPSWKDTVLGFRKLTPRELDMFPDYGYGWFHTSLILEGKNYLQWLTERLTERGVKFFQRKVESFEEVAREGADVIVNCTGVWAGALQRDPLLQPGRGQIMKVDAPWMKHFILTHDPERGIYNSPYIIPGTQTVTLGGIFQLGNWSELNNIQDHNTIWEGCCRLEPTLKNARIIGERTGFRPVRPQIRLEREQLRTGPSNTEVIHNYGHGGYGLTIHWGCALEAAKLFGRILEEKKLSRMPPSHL

SMILES | IC50
O=c1[nH]c(=O)n(Cc2cccc3ccsc23)nc1O [Compound 10q, 2-(Benzo[b]thiophen-7-ylmethyl)-6-hydroxy-1,2,4-triazine-3,5(2H,4H)-dione] | 2000 nM
O=c1[nH]c(=O)n(CCc2cc(F)cc(F)c2)nc1O [Compound 10r, 2-(3,5-Difluorophenethyl)-6-hydroxy-1,2,4-triazine-3,5(2H,4H)-dione] | 200 nM
O=c1[nH]c(=O)n(Cc2cccc3c(F)cccc23)nc1O [Compound 10s, 2-((5-Fluoronaphthalen-1-yl)methyl)-6-hydroxy-1,2,4-triazine-3,5(2H,4H)-dione] | 80 nM
CN(C)CCn1nc(O)c(=O)[nH]c1=O [Compound 12a, 2-(2-(Dimethylamino)ethyl)-6-hydroxy-1,2,4-triazine-3,5(2H,4H)-dione] | 5000 nM
CC(C)N1CCN(CCn2nc(O)c(=O)[nH]c2=O)CC1 [Compound 12b, 6-Hydroxy-2-(2-(4-isopropylpiperazin-1-yl)ethyl)-1,2,4-triazine-3,5(2H,4H)-dione] | 9000 nM
O=c1[nH]c(=O)n(CCN2CCN(c3ccccc3F)CC2)nc1O [Compound 12c, 2-(2-(4-(2-Fluorophenyl)piperazin-1-yl)ethyl)-6-hydroxy-1,2,4-triazine-3,5(2H,4H)-dione] | 3000 nM
O=c1[nH]c(=O)n(CCN2CCc3ccccc3C2)nc1O [Compound 12d, 2-(2-(3,4-Dihydroisoquinolin-2(1H)-yl)ethyl)-6-hydroxy-1,2,4-triazine-3,5(2H,4H)-dione] | 700 nM
O=c1[nH]c(=S)n(CCc2ccccc2)nc1O [Compound 16, 6-Hydroxy-2-phenethyl-3-thioxo-3,4-dihydro-1,2,4-triazin-5(2H)-one] | 50 nM
O=C(Cn1nc(O)c(=O)[nH]c1=O)c1ccccc1 [Compound 20, 6-Hydroxy-2-(2-oxo-2-phenylethyl)-1,2,4-triazine-3,5(2H,4H)-dione] | 1000 nM
O=c1[nH]c(=O)n(CC(O)c2ccccc2)nc1O (stereo not drawn) [Compound 21, 6-Hydroxy-2-(2-hydroxy-2-phenylethyl)-1,2,4-triazine-3,5(2H,4H)-dione] | 1000 nM
O=c1[nH]c(=O)n(Cc2cccc3cccnc23)nc1O [Compound 25a, 6-Hydroxy-2-(quinolin-8-ylmethyl)-1,2,4-triazine-3,5(2H,4H)-dione] | 3000 nM
O=c1[nH]c(=O)n(Cc2ccc(F)c3ccccc23)nc1O [Compound 25b, 2-((4-Fluoronaphthalen-1-yl)methyl)-6-hydroxy-1,2,4-triazine-3,5(2H,4H)-dione] | 200 nM
Cc1ccc(Cn2nc(O)c(=O)[nH]c2=O)c2ccccc12 [Compound 25c, 6-Hydroxy-2-((4-methylnaphthalen-1-yl)methyl)-1,2,4-triazine-3,5(2H,4H)-dione] | 1000 nM
O=c1[nH]c(=O)n(Cc2cccc3cc(Br)ccc23)nc1O [Compound 25d, 2-((6-Bromonaphthalen-1-yl)methyl)-6-hydroxy-1,2,4-triazine-3,5(2H,4H)-dione] | 50 nM
O=c1[nH]c(=O)n(CCc2ccc(-c3ccccc3F)cc2)nc1O [Compound 30, 2-(2-(2′-Fluorobiphenyl-4-yl)ethyl)-6-hydroxy-1,2,4-triazine-3,5(2H,4H)-dione] | 80 nM

These compounds were tested against Porcine DAAO (Sus scrofa (Pig), UniProt P00371) (assay: In vitro D-amino acid oxidase (DAAO) assay, porcine enzyme). Conditions: values marked *: Porcine DAAO was used to measure inhibitory potency; read-out: Inhibition of DAAO IC50.
Assay type: biochemical
Protocol: as §1

Sequence of Porcine DAAO (P00371 whole entry): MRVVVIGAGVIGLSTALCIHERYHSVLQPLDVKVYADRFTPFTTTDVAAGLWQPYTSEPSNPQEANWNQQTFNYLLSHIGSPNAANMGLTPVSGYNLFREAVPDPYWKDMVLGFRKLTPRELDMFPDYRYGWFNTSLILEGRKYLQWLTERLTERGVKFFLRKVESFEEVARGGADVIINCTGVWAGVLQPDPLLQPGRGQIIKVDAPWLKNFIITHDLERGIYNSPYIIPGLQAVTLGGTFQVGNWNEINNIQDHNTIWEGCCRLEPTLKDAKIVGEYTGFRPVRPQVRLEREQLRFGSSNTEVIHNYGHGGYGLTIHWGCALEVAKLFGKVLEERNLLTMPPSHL

SMILES | IC50
CCOc1ccc(CCn2nc(O)c(=O)[nH]c2=O)cc1 [Compound 10t, 2-(4-Ethoxyphenethyl)-6-hydroxy-1,2,4-triazine-3,5(2H,4H)-dione] | 300 nM
Cc1ccc2ccccc2c1Cn1nc(O)c(=O)[nH]c1=O [Compound 10u, 6-Hydroxy-2-((2-methylnaphthalen-1-yl)methyl)-1,2,4-triazine-3,5(2H,4H)-dione] | 600 nM
O=c1[nH]c(=O)n(CCc2ccc(N3CCOCC3)cc2)nc1O [Compound 32, 6-Hydroxy-2-(4-morpholinophenethyl)-1,2,4-triazine-3,5(2H,4H)-dione] | 1000 nM

— patent publication US9505753B2, “Inhibitors of D-amino acid oxidase” (THE JOHNS HOPKINS UNIVERSITY, priority 2012, dated 2016)
